{"source": "patent US20220088004A1", "about": "“COMPOSITION FOR COMPETITIVE INHIBITION OF OREXIN RECEPTORS” (SUNTORY HOLDINGS LIMITED, priority 2019, published 2022)", "key": {"orexin receptor [1]": {"tested_on": "orexin receptor", "conditions": "injection; amyloid precursor protein transgenic mice; cited from earlier work"}, "Orexin 2 Receptor": {"target": "Orexin 2 Receptor (Homo sapiens, UniProt O43614)", "sequence (O43614 whole entry)": "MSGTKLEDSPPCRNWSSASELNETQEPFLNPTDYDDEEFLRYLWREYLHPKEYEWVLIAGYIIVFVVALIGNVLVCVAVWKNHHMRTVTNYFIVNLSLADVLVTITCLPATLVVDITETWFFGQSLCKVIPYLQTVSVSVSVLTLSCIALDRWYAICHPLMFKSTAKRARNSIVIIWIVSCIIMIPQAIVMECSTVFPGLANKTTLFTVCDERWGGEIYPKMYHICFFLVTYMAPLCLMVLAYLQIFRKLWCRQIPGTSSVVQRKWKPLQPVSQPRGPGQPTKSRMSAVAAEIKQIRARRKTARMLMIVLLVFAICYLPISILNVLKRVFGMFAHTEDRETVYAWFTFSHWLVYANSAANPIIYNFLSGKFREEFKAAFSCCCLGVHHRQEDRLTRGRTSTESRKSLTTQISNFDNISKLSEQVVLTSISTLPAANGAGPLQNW", "conditions": "100 μg/mL test substance, 1 h pre-incubation, then 50 nM orexin-A for 24 hours; HEK293T cells; n=3; FIG. 1", "procedure": "The orexin receptor antagonist activity of a test substance was measured using an accessory to Orexin 2 Receptor Reporter Assay Kit (Cayman Chemical Company).\nIn this evaluation system, cells that express orexin receptors at cell surfaces are used. Binding of the agonist (orexin) to the orexin receptor causes secretion of secreted alkaline phosphatase (SEAP). Secreted SEAP is reacted with an alkaline phosphatase substrate, and the enzyme activity of SEAP is measured using a luminometer. A substance having orexin receptor antagonist action reduces the enzyme activity.\n(1) HEK293T cells were prepared at a concentration of 2.5×10^5 cells/mL using Dulbecco's modified Eagle medium (high glucose content) (Dulbecco's Modified Eagle's Medium-high glucose, with 4500 mg/L glucose, L-glutamine, sodium pyruvate, and sodium bicarbonate, liquid, sterile-filtered, suitable for cell culture) (Sigma-Aldrich) to which fetal bovine serum (FBS) was added to a final concentration of 10%.\n(2) The medium containing HEK293T cells prepared in (1) was seeded at 200 μL per well in Orexin 2 Receptor Reverse Transfection Strip Plate.\n(3) Incubation was performed at 5% CO2 and 37° C. for 16 hours. […]\n(7) The enzyme (SEAP) activity of the supernatant was measured in accordance with a protocol attached to Orexin 2 Receptor Reporter Assay Kit (Cayman Chemical Company). […]"}, "HEK293T cells": {"tested_on": "HEK293T cells", "experiment": "WST-8 Cell Proliferation Assay (dehydrogenase activity, cell growth)", "assay_type": "cell-based", "conditions": "100 μg/mL, HEK293T cells of Example 1; compared to positive and negative control; FIG. 2", "experimental": "For the pyrroloquinoline quinone disodium salt-added group in Example 1, WST-8 Cell Proliferation Assay Kit (Cayman Chemical Company) was used to confirm the cell growth after addition of pyrroloquinoline quinone disodium salt. The measurement was performed by a method according to an attached protocol. The dehydrogenase activity is known to be in proportion to the number of live cells. The kit utilizes this principle and measures the dehydrogenase activity released in the medium from the cells."}, "orexin receptor [2]": {"tested_on": "orexin receptor", "conditions": "intake of suvorexant; cited from earlier work"}, "orexin receptor [3]": {"tested_on": "orexin receptor", "conditions": "during glucose tolerance test; cited from earlier work"}}, "data": [{"smiles": "CNC(=O)[C@@H](c1ccccc1)N1CCc2cc(OC)c(OC)cc2[C@@H]1CCc1ccc(C(F)(F)F)cc1", "note": "[almorexant]", "values": [{"measurement": "amyloid β level and amyloid plaque formation", "setting": "orexin receptor [1]", "result": "decrease in amyloid β level and in amyloid plaque formation"}]}, {"smiles": "O=C(O)c1cc(C(=O)O)c2c(n1)C(=O)C(=O)c1cc(C(=O)O)[nH]c1-2.[Na].[Na]", "note": "[pyrroloquinoline quinone disodium salt]", "values": [{"measurement": "orexin receptor antagonist action (SEAP enzyme activity relative to negative control)", "setting": "Orexin 2 Receptor", "result": "orexin receptor antagonist action equivalent to that exerted by addition of 1 μM suvorexant"}, {"measurement": "number of cells (dehydrogenase activity relative to negative control)", "setting": "HEK293T cells", "result": "did not show a decrease in the number of cells"}]}, {"smiles": "Cc1ccc(-n2nccn2)c(C(=O)N2CCN(c3nc4cc(Cl)ccc4o3)CC[C@H]2C)c1", "note": "[suvorexant]", "values": [{"measurement": "sleep latency, wake after sleep onset, total sleep duration, sleep efficiency", "setting": "orexin receptor [2]", "result": "decreased sleep latency and objective wake after sleep onset and have increased total sleep duration and sleep efficiency"}, {"measurement": "rise in blood sugar levels", "setting": "orexin receptor [3]", "result": "suppressing the rise in blood sugar levels"}]}]}
